Measurements reported in ChEMBL document CHEMBL6121041, “Design and synthesis of isatin derivative payloaded peptide-drug conjugate as tubulin inhibitor against colorectal cancer” (Eur J Med Chem, 2025).
Residues, ends and D or L forms follow the SMILES beside them.

What was measured:
[1] = Cytotoxicity against HUVEC cells assessed as reduction in cell viability incubated for 48 hrs by MTT assay; format: toxicity, cell-based; conditions: human
[2] = test system: 786-0; assay: Antiproliferative activity against human 786-0 cells assessed as reduction in cell viability incubated for 48 hrs by MTT assay; format: functional, cell-based; conditions: 786-0, 48 h
[3] = test system: HCT-116; assay: Antiproliferative activity against human HCT-116 cells assessed as reduction in cell viability incubated for 48 hrs by MTT assay; format: functional, cell-based; conditions: HCT-116, 48 h
[4] = test system: HCC827; assay: Antiproliferative activity against human HCC827 cells assessed as reduction in cell viability incubated for 48 hrs by MTT assay; format: functional, cell-based; conditions: HCC827, 48 h
[5] = test system: HepG2; assay: Antiproliferative activity against human HepG2 cells assessed as reduction in cell viability incubated for 48 hrs by MTT assay; format: functional, cell-based; conditions: HepG2, 48 h
[6] = Cytotoxicity against HK-2 cells assessed as reduction in cell viability incubated for 48 hrs by MTT assay; format: toxicity, cell-based; conditions: human
[7] = test system: K562; assay: Antiproliferative activity against human K562 cells assessed as reduction in cell viability incubated for 48 hrs by MTT assay; format: functional, cell-based; conditions: K562, 48 h
[8] = test system: MGC-803; assay: Antiproliferative activity against human MGC-803 cells assessed as reduction in cell viability incubated for 48 hrs by MTT assay; format: functional, cell-based; conditions: MGC-803, 48 h

SMILES	IC50 at 48 h [1]	IC50 [2]	IC50 [3]	IC50 [4]	IC50 [5]	IC50 at 48 h [6]	IC50 [7]	IC50 [8]
COc1ccc(CN2C(=O)C(=O)c3cc(-c4ccc(OC)cc4)ccc32)cc1	27.2 µM	51.4 µM	0.768 µM	10.1 µM	43 µM	10.5 µM	0.31 µM	19 µM
COc1ccc(CN2C(=O)C(=O)c3cc(-c4ccc(C(=O)O)cc4)ccc32)cc1	34.7 µM	87.6 µM	18.7 µM	4.15 µM	> 100 µM	30.9 µM	> 100 µM	91.1 µM
COC(=O)c1ccc(-c2ccc3c(c2)C(=O)C(=O)N3Cc2ccc(OC)cc2)cc1	81.7 µM	138 µM	1.6 µM	12 µM	> 100 µM	8.54 µM	2.07 µM	86.2 µM
COc1ccc(CN2C(=O)C(=O)c3cc(-c4ccc(SC)cc4)ccc32)cc1	25 µM	30.8 µM	0.728 µM	4.15 µM	71 µM	13.4 µM	0.5 µM	76.5 µM
CC(=O)N[C@@H](CCCCN)C(=O)N1CCC[C@H]1C(=O)N[C@@H](CO)C(=O)N[C@@H](CO)C(=O)N1CCC[C@H]1C(=O)N1CCC[C@H]1C(=O)N[C@@H](CCC(=O)O)C(=O)N[C@@H](CCC(=O)O)C(N)=O (Ac-KPSSPPEE-NH2)	> 100 µM	–	> 100 µM	–	–	–	–	–
COc1ccc(CN2C(=O)C(=O)c3cc(-c4ccc(COC(C)=O)cc4)ccc32)cc1	34.7 µM	50.5 µM	2.02 µM	29.3 µM	6.78 µM	9.02 µM	1.14 µM	> 100 µM
